From ChEMBL document CHEMBL1137983, “AL-12182, a novel 11-oxa prostaglandin analog with topical ocular hypotensive activity in the monkey” (Bioorg Med Chem Lett, 2004)

Experiments:
[1] = target: Prostaglandin F2-alpha receptor (Bos taurus, UniProt P37289); assay: Binding affinity for Prostanoid FP receptor of bovine corpus luteum
[2] = target: Prostaglandin F2-alpha receptor (Mus musculus) (UniProt P43117); assay: Percent response for stimulation of prostanoid FP receptor-linked phosphoinositide turnover in Swiss 3T3 mouse fibroblast cells
Felis catus = species: Felis catus; assay: Effective dose to cat pupil diameter constriction
Oryctolagus cuniculus = species: Oryctolagus cuniculus; assay: Effective dose estimated to elicit conjunctival hyperemia in rabbits over 4 h; assay type: functional, Conjunctiva
Monkey [3] = assay: Percentage change to elicit monkey intraocular pressure at 0.3 ug; assay type: functional, Cercopithecidae, Eye
Monkey [4] = assay: Percentage change to elicit monkey intraocular pressure at 3 ug; assay type: functional, Cercopithecidae, Eye
Monkey [5] = assay: Percentage change to elicit monkey intraocular pressure at 30 ug; assay type: functional, Cercopithecidae, Eye
Monkey [6] = assay: Percentage change to elicit monkey intraocular pressure at 1 ug; assay type: functional, Cercopithecidae, Eye

Prostaglandin F2-alpha receptor (Mus musculus), sequence (P43117 whole entry, looked up): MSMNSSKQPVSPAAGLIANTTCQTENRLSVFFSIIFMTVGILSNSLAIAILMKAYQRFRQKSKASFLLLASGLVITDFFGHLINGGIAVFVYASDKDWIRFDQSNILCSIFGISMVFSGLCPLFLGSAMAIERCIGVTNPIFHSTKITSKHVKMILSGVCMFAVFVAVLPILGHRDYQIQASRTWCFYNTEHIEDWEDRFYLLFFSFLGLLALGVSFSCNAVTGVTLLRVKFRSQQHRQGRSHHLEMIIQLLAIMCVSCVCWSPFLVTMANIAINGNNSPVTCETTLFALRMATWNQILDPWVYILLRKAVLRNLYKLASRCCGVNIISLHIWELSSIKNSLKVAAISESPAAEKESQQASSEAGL
Prostaglandin F2-alpha receptor, sequence (P37289 whole entry): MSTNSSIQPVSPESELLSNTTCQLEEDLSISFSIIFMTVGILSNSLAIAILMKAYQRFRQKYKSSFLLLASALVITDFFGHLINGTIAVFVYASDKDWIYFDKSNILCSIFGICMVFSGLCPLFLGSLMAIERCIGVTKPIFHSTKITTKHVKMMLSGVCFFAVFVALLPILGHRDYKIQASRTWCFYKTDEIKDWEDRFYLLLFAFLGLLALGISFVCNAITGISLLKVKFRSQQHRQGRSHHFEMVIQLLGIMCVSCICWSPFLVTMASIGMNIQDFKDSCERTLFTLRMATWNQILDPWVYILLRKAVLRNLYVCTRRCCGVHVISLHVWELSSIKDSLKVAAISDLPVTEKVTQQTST

O=C(O)CCCC/C=C\C[C@H]1[C@@H](O)CO[C@@H]1/C=C/[C@H](O)COc1cccc(C(F)(F)F)c1
Ki [1]: > 10000 nM
Response [2]: 43%

O=C(O)CCCC/C=C\C[C@H]1[C@@H](O)CO[C@@H]1/C=C/[C@@H](O)COc1cccc(Cl)c1
Ki [1]: 890 nM
Response [2]: 84%

O=C(O)CC/C=C\CCC[C@H]1[C@@H](O)CO[C@@H]1/C=C/[C@H](O)COc1cccc(Cl)c1
Ki [1]: 820 nM
Response [2]: 71%

CC(C)OC(=O)CCC/C=C/C[C@@H]1[C@@H](/C=C/C(O)COc2cccc(C(F)(F)F)c2)[C@H](O)C[C@@H]1O (stereo partly specified)
ED5 (Felis catus): 0.01 µg
ED5 (Oryctolagus cuniculus): 3 µg
Ki [1]: 52 nM
Change (Monkey [3]): -29%
Response [2]: 100%

O=C(O)CC/C=C\CCC[C@H]1[C@@H](O)CO[C@@H]1/C=C/[C@@H](O)COc1cccc(C(F)(F)F)c1
Ki [1]: 350 nM
Response [2]: 88%

O=C(O)CC/C=C\CCC[C@H]1[C@@H](O)CO[C@@H]1/C=C/[C@H](O)COc1ccccc1
Ki [1]: 5100 nM
Response [2]: 59%

CC(C)OC(=O)CCC/C=C\CC[C@H]1[C@@H](O)CO[C@@H]1/C=C/[C@@H](O)COc1cccc(Cl)c1 [AL-12182]
ED5 (Felis catus): 0.2 µg
ED5 (Oryctolagus cuniculus): 30 µg
Change (Monkey [4]): -40%

CCCCC[C@H](O)/C=C/[C@H]1OC[C@H](O)[C@@H]1C/C=C\CCCC(=O)O
Ki [1]: 6700 nM
Response [2]: 64%

O=C(O)CCCC/C=C\C[C@H]1[C@@H](O)CO[C@@H]1/C=C/[C@@H](O)COc1cccc(C(F)(F)F)c1
Ki [1]: 3100 nM
Response [2]: 74%

CC(C)OC(=O)CCC/C=C/C[C@@H]1[C@@H](CC[C@@H](O)CCc2ccccc2)[C@H](O)C[C@@H]1O
ED5 (Felis catus): 0.13 µg
ED5 (Oryctolagus cuniculus): 1.8 µg
Change (Monkey [4]): -27%
Ki [1]: 92 nM
Response [2]: 75%

O=C(O)CC/C=C\CCC[C@H]1[C@@H](O)CO[C@@H]1/C=C/[C@@H](O)COc1cccc(Cl)c1
Ki [1]: 147 nM
Response [2]: 88%

O=C(O)CCCC/C=C\C[C@H]1[C@@H](O)CO[C@@H]1/C=C/[C@@H](O)COc1ccccc1
Ki [1]: 640 nM
Response [2]: 67%

CC(C)OC(=O)CCC/C=C\C[C@H]1[C@@H](O)CO[C@@H]1/C=C/[C@@H](O)COc1cccc(Cl)c1
ED5 (Felis catus): 0.8 µg
ED5 (Oryctolagus cuniculus): 30 µg
Change (Monkey [5]): -15%

O=C(O)CC/C=C\CCC[C@H]1[C@@H](O)CO[C@@H]1/C=C/[C@H](O)COc1cccc(C(F)(F)F)c1
Ki [1]: 9900 nM
Response [2]: 61%

O=C(O)CC/C=C\CCC[C@H]1[C@@H](O)CO[C@@H]1/C=C/[C@@H](O)COc1ccccc1
Ki [1]: 330 nM
Response [2]: 83%

CCCCC[C@@H](O)/C=C/[C@H]1OC[C@H](O)[C@@H]1C/C=C\CCCC(=O)O
Ki [1]: > 10000 nM

O=C(O)CCCC/C=C\C[C@H]1[C@@H](O)CO[C@@H]1/C=C/[C@H](O)COc1ccccc1
Ki [1]: 2800 nM
Response [2]: 49%

CCCCC[C@H](O)/C=C/C1[C@H](O)C[C@H](O)[C@@H]1C/C=C\CCCC(=O)OC(C)C (stereo partly specified)
ED5 (Felis catus): 0.03 µg
ED5 (Oryctolagus cuniculus): <0.1 µg
Change (Monkey [6]): -38%

O=C(O)CCCC/C=C\C[C@H]1[C@@H](O)CO[C@@H]1/C=C/[C@H](O)COc1cccc(Cl)c1
Ki [1]: 7300 nM
Response [2]: 67%
